# Data: patent publication EP4160211A1, “DETECTING THE EXPOSURE OF A SUBJECT TO A THYROID DISRUPTING CHEMICAL, EVEN BEFORE HYPOTHYROIDISM APPEARS” (Moreno Navarro, José Carlos, priority 2021, dated 2023)
# Read-outs that look alike come from different tables or passages of the source.
# What was measured:
# Dehal1 = target: T1, Dehal1 (Homo sapiens, UniProt Q6PHW0); experiment: In vitro Dehal1 inhibition assay (inhibition of 125I-MIT deiodination in homogenates of DEHAL1-transfected HEK293 cells); type: biochemical
# T1 construct: expressed in transfected cells; host or cells: HEK293
# T1 sequence (Q6PHW0 1-289): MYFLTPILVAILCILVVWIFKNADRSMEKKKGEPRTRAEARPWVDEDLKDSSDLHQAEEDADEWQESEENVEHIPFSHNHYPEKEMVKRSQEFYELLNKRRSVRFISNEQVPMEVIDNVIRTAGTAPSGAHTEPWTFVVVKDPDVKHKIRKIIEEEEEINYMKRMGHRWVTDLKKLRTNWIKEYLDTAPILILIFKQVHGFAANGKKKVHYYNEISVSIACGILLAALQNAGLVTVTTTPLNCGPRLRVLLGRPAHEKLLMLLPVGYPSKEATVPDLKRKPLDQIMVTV
# Method: Human embryonic kidney (HEK293) cells were grown in Dulbecco's modified Eagle medium (Gibco) supplemented with 10% fetal calf serum and 0.1 mM flavin mononucleotide (FMN, MP Biochemicals) in 6-well plates. At 50% confluency, cells were transfected with 1 µg of wild-type or mutant DEHAL1 plasmid or empty pcDNA3.1 plasmid, using Fugene6 (Roche). After 24 h incubation, cells were washed with 1 ml PBS and collected in 0.5 ml PED buffer (0.1 M phosphate, pH 7.2, 2 mM EDTA, 1 mM dithiothreitol) per well and kept on ice. Samples were sonicated twice for 10 sec using Soniprep150, frozen on dry ice-ethanol and stored at -80 °C. For experiments testing FMN-response, culture medium was supplemented with 0-2 mM FMN.
# The experiments follow described methods to determine the MIT deiodination capacity of Dehal1-transfected cells (8), adding the candidate chemicals to test their capacity to inhibit such reaction. Basically, labelled [^125I]MIT was prepared by radioiodination of L-tyrosine (Sigma-Aldrich) with ^125I - (specific activity: 15 Ci/mg, Amersham Biosciences) using the chloramine-T method and purified by chromatography on cation-exchange resin (Dowex 50WX2-200, Sigma-Aldrich). […] Incubations contained […] [^125I]MIT, 0.1 µM unlabeled MIT and 10-25 µg cell homogenate protein in a final volume of 0.1 ml PED buffer. Reactions were started by the addition of NADPH (final concentration 0.1 mM), and the mixtures were incubated for 60 min at 37°C. Reactions were stopped by the addition of 0.9 ml of 10% acetic acid on ice. Samples were applied to 2 ml Dowex 50WX2-200 columns, and successively eluted with 3x1 ml 10% acetic acid (containing eluted iodide), 1 ml water, and 4×1ml 1 M NH4OH (containing iodotyrosines). Radioactivity was measured in each fraction in a NE1600 gamma counter (NE Technologies) and percentage deiodination was calculated. Protein concentrations in cell homogenates were measured by Bradford's assay; iodotyrosine deiodinase activity was corrected for the slight 1251 - production in empty pcDNA3.1-transfected cell homogenates and expressed per mg protein.
# For the general screen of inhibition potential of each compound, 10 µM unlabeled chemicals tested (Sigma-Aldrich) were added to the incubation mixture together with […] unlabeled MIT with no further modifications on the protocol above. Said chemical tested were: Tetrabromobisphenol A (TBBPA), Bisphenol A (BPA), Pentachlorophenol (PCP), tetraiodophenol (TIP), Tetrabromophenol (TBP), tetrachlorophenol (TCP), tetraafluorophenol (TFP), Di-iodo-nitro-Pheol (DINP), Di-chloro-nitrophenol (DCNP), Dibromophenol (DBP), Diclorophenol (DCP), iodophenol (IP), Bromophenol (BP), Fluorophenol (FP), phenol (P), Tyrosien(Tyr), mononitrotyrosine (MNT), monochlorotyrosine (MCT), Monoiodotyrosine (MIT), Diiodotyrosine (DIT). As negative controls: empty pcDNA-transfected cells, DMSO, NaOH and Buffer.
# Crude deiodination capacity obtained in individual chemical-containing mixture was calculated, including the vehicle (DMSO)-containing mixture. Percentage inhibition of each compound was determined with respect to the vehicle containing mixture. For inhibition curves of particular compounds, equimolar concentrations of unlabeled MIT (0, 0.1, 1, 10, 100 µM) and BPA, TBBPA, PCP and MNT were used, and % inhibition of individual compounds was calculated as above.
# thyroid hormone axis = experiment: In vivo administration to mice: hormonal and biochemical effects in plasma and urine; conditions: for UIC / UIC % variation: urine
# Method: Mice. Female wild type mice from C57BI/6 J strain were purchased from Charles River company. Animals were maintained under standard conditions of temperature (22-24°C), humidity (40-50%), 12-12 hours of dark/light cycle, water and rodent diet ad libitum. Five months old female mice were acclimatized prior to the experiment and handled based on animal bioethical protocols. The experimental procedures were approved by the Research Ethical Committee of the Autonomous University of Madrid and the competent department of Comunidad de Madrid. Tetrabromobisphenol A powder (TBBPA, 97% purity) obtained through Sigma-Aldrich was dissolved in a vehicle containing 25% ethanol and 75% of peanut oil. A TBBPA dose of 500 mg/kg of body weight was injected subcutaneously for 7 days. Blood and urine collection were performed at the end of the experiment (Fig. 1).
# Blood, urine and tissue collection. At day 7, blood was collected from cardiac puncture in heparinized tubes and centrifuged (2000 g for 10 minutes) to isolate plasma. Urine was collected using hydrophobic sand (Coastline Global, USA). Samples were kept at -20°C until used. For tissue isolation, mice were kept under deep anesthesia (Sevorane) and euthanized by cervical dislocation.
# Previously published methods were modified to allow the simultaneous quantification of MIT, DIT, T3, T4.
# Sample preparation: 100 µL of urine/plasma were added with suitable amounts of stable isotope-labeled internal standards (5.4 pmol 13C9-MIT, 4.0 pmol 13C9-DIT, 2.8 pmol 13C6-T3, 2.4 pmol 13C6-T4), vortexed, stored 30 min at room temperature to equilibrate, and deproteinized with the addition of 300µL of cold-acetone and the storage at 4°C for 30 min. After centrifugation at 22780 × g for 10 min, supernatants were dried at 40 °C under a gentle stream of nitrogen, derivatized with 200 µL of 3.0 N hydrochloric acid in n-butanol and incubated for 45 min at 60 °C, for the formation of the corresponding butyl esters of tyrosines, thyroid hormones, and their internal standards. After further evaporation to dryness, the sample was reconstituted with 500 µL of 0,1 M potassium buffer (pH=4) and loaded onto Agilent (Santa Clara, CA, USA) Bond-Elut Certify 130 mg SPE cartridges, to perform the extraction according to the procedure described by Saba et al.. The eluate was dried once again under nitrogen, the dried residue was reconstituted with 100 µL of acetonitrile/0.1 M hydrochloric acid (50/50 by volume), and 1µL of it was injected into the HPLC-MS-MS system. Calibration curves ranged from 0.1 to 100.0 ng/mL and were daily prepared by serial dilution in methanol and derivatized with samples.
# Instrument layout: AB-Sciex (Concord, Ontario, Canada) QTRAP 6500+ triple quadrupole mass spectrometer with ESI source, coupled to an Agilent (Santa Clara, CA, USA) 1290 UHPLC system, fitted with a 110 Å, 2x50 mm, 3µm particle size, Gemini C18 column (Phenomenex, Torrance, CA).
# Operative conditions: the chromatographic separation was carried out at 400 µL/min as a flow rate, using methanol/acetonitrile (20/80, by volume) added with 0.1% formic acid (solvent A) and water containing 0.1% formic acid (solvent B). The elution gradient was the following: 95 % solvent B from 0 to 3 min; 35 % solvent B from 3 to 8.5 min; 0 % solvent B from 8.5 to 9 min; 0 % solvent B from 9 to 11 min; 95 % solvent B from 11 to 14 min (equilibration step). […] Three transitions were used to monitor each compound and internal standard: that one with the highest signal/noise ratio was used as a quantifier (Q), while the other two as qualifiers (q).
# [1] = general screen, compound at 10 µM
# [2] = dose-response inhibition assay, 0-100 µM
# [3] = MNT 1mg/Kg b.w./day, for 7 days
# [4] = vs WT, MNT 1mg/Kg b.w./day, for 7 days
# [5] = TBBPA 500 mg/kg b.w/day subcutaneously for 7 days
# [6] = TBBPA 500 mg/kg b.w/day subcutaneously for 7 days, plasma
# [7] = vs WT, TBBPA 500 mg/kg b.w/day for 7 days
# [8] = vs WT, TBBPA 500 mg/kg b.w/day for 7 days, plasma
# [9] = read-out: inhibition of Dehal1 activity
smiles,measurement,setting,value
"N[C@@H](Cc1ccc(O)c(I)c1)C(=O)O [MIT, Monoiodotyrosine, reference compound]",inhibition of labeled-MIT deiodination,Dehal1; [1],maximal inhibition
"CC(C)(c1ccc(O)cc1)c1ccc(O)cc1 [BPA, Bisphenol A, reference compound]",inhibition capacity,Dehal1; [2],no inhibition capacity
"N[C@@H](Cc1ccc(O)c([N+](=O)[O-])c1)C(=O)O [MNT, 3-L-nitrotyrosine, reference compound]",DIT-urine,thyroid hormone axis; [3],0.29 ± 0.06 ng/mL
same,MIT-urine,thyroid hormone axis; [3],1.94 ± 0.13 ng/mL
same,MIT/DIT urine,thyroid hormone axis; [3],"6,69"
same,T3,thyroid hormone axis; [3],0.27 ± 0.02 ng/mL
same,T4,thyroid hormone axis; [3],25.35 ± 1.2 ng/mL
same,TSH,thyroid hormone axis; [3],1.07 ± 0.07 mU/L
same,UIC,thyroid hormone axis; [3],198 ± 14.43 µg/L
same,DIT-urine % variation,thyroid hormone axis; [4],-19%
same,MIT-urine % variation,thyroid hormone axis; [4],+46%
same,MIT/DIT urine % variation,thyroid hormone axis; [4],+80%
same,T3 % variation,thyroid hormone axis; [4],-5%
same,T4 % variation,thyroid hormone axis; [4],+8%
same,TSH % variation,thyroid hormone axis; [4],+7%
same,UIC % variation,thyroid hormone axis; [4],+47%
same,IC50,Dehal1; [2],< 0.01 µM
same,inhibition of labeled-MIT deiodination,Dehal1; [1],maximal inhibition
"CC(C)(c1cc(Br)c(O)c(Br)c1)c1cc(Br)c(O)c(Br)c1 [TBBPA, Tetrabromobisphenol A]",T3,"thyroid hormone axis; TBBPA 500 mg/kg b.w/day for 7 days, plasma",remained unchanged
same,DIT-plasma,thyroid hormone axis; [5],0.06 ± 0.01 ng/mL
same,DIT-urine,thyroid hormone axis; [5],0.23 ± 0.04 ng/mL
same,MIT-plasma,thyroid hormone axis; [5],0.21 ± 0.01 ng/mL
same,MIT-urine,thyroid hormone axis; [5],2.53 ± 0.11 ng/mL
same,MIT/DIT plasma,thyroid hormone axis; [5],"3,5"
same,MIT/DIT urine,thyroid hormone axis; [5],11
same,T4,thyroid hormone axis; [6],14.45 ± 1.65 ng/mL
same,TSH,thyroid hormone axis; [6],1.3 ± 0.025 mU/L
same,UIC,thyroid hormone axis; [5],170.6 ± 13.9 µg/L
same,DIT-plasma % variation,thyroid hormone axis; [7],-62%
same,DIT-urine % variation,thyroid hormone axis; [7],-36%
same,MIT-urine % variation,thyroid hormone axis; [7],+73%
same,MIT/DIT plasma % variation,thyroid hormone axis; [7],+250%
same,MIT/DIT urine % variation,thyroid hormone axis; [7],+172%
same,T4 % variation,thyroid hormone axis; [8],-38%
same,TSH % variation,thyroid hormone axis; [8],+23%
same,UIC % variation,thyroid hormone axis; [7],+127%
same,IC50,Dehal1; [2],~25 µM
same,inhibition at 10 µM,"Dehal1; dose-response inhibition assay, 10 µM, read-out: inhibition of Dehal1 activity",18%
same,inhibition at 100 µM,"Dehal1; dose-response inhibition assay, 100 µM, read-out: inhibition of Dehal1 activity",78%
same,inhibition at 10 µM,"Dehal1; general screen, compound at 10 µM, read-out: inhibition of labeled-MIT deiodination",37%
"Oc1c(Cl)c(Cl)c(Cl)c(Cl)c1Cl [PCP, Pentachlorophenol]",IC50,Dehal1; [2],~25 µM
same,inhibition at 10 µM,Dehal1; [9],22%
same,inhibition at 100 µM,Dehal1; [9],78%
same,inhibition at 10 µM,Dehal1; read-out: inhibition of labeled-MIT deiodination,55%
"N[C@@H](Cc1cc(I)c(O)c(I)c1)C(=O)O [DIT, Diiodotyrosine, reference compound]",inhibition of labeled-MIT deiodination,Dehal1; [1],maximal inhibition
